Source: patent US20110092453A1, “TREATMENTS AND PREVENTION OF HYDROCEPHALUS” (THE UNIVERSITY OF MANCHESTER, priority 2007, published 2011)

Key:
[1] = system: germinal epithelium cells; conditions: in the presence of 10% HC CSF; n=3
H-Tx model of EOHC = experiment: In vivo supplementation of mothers, numbers of affected HC fetuses; parameters: species or system rat; conditions: long term: 2.5 mg/kg daily from 14 days prior to mating to day 20; saline controls 45%
Protocol: (§1) Mothers were injected daily with 2.5 mg/kg of the supplements folic acid or folinic acid or saline controls. Injections were started 14 days prior to mating and continued throughout pregnancy up to harvesting of the fetuses at day 20. Fetuses were harvested on Day20 of gestation and each fetus was scored as affected HC or normal. The percentage of normal or affected fetuses in each litter was then calculated and results were averaged across the 3 mothers (2 for saline treatment) and are plotted as shown, mean±SD.
as §1, with “acid.” for “acid or saline controls.”, “at E17 of the pregnancy” for “14 days prior to mating”, “through the rest of the” for “throughout”
Timed pregnancies of H-Tx or Wistar rats were harvested from pregnant dams killed by intraperitoneal injection of sodium pentobarbitone. […]
Female rats were handled for one week prior to the start of the supplementation protocol to decrease handling stress. […] Stained sections were photographed on a Lecia DMLB photomicroscope and analysed using Metaview software. […]

[2] = Effect of supplementation on mother's weight through pregnancy; assay type: in vivo, rat; conditions: 2.5 mg/kg daily injection from 14 days prior to mating to day 20; no significant differences
Protocol: Mothers were injected daily with 2.5 mg/kg of the supplements folic acid or folinic acid or saline controls. Injections were started 14 days prior to mating and continued throughout pregnancy up to harvesting of the fetuses at day 20. Mothers were weighed at the same time each day and data converted to % of starting weight at day 0. Results were averaged across the 3 mothers (2 for saline treatment) and are plotted as shown mean±SD.
The hypothesis was tested further using the H-Tx model of EOHC. Mothers were injected daily with 2.5 mg/kg of the supplements folic acid (3 mothers-31 pups) or folinic acid (3 mothers-35 pups) or saline controls (2 mothers-20 pups). Injections were started 14 days prior to mating and continued throughout pregnancy up to harvesting of the fetuses at day 20.

[3] = human population, supplementation of female diets; data from reports; cited from earlier work

weight of the mothers compared to saline treated animals [2] | Structure (SMILES) | uptake, % of that in the absence of added CSF [1] [%] | incidence of HC (percentage of affected fetuses in the litter) (H-Tx model of EOHC) [%] | effect on the incidence of HC [3]
– | Nc1nc2ncc(CNc3ccc(C(=O)N[C@@H](CCC(=O)O)C(=O)O)cc3)nc2c(=O)[nH]1 [[^3H]-folic acid] | 53±13 | – | –
slightly increased weight | Nc1nc2ncc(CNc3ccc(C(=O)N[C@@H](CCC(=O)O)C(=O)O)cc3)nc2c(=O)[nH]1 [folic acid] | – | 60 | does not have any significant effect
